Source: PubChem BioAssay (NCI)
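Tested at 5 concentrations; 48 h exposure; 96-well plates; endpoints linearly interpolated, else capped at highest concentration. At the TGI there is no net growth.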

Legend:
Assay in all cases: inhibition of tumour cell growth, NCI panel, 48 h
786-0 renal = system: 786-0 renal
A549 NSCLC = system: A549 NSCLC
ACHN renal = system: ACHN renal
BT-549 breast = system: BT-549 breast
CAKI-1 renal = system: CAKI-1 renal
CCRF-CEM leukemia = system: CCRF-CEM leukemia
DU-145 prostate = system: DU-145 prostate
EKVX NSCLC = system: EKVX NSCLC
HCC-2998 colon = system: HCC-2998 colon
HCT-116 colon = system: HCT-116 colon
HCT-15 colon = system: HCT-15 colon
HL-60(TB) leukemia = system: HL-60(TB) leukemia
HOP-62 NSCLC = system: HOP-62 NSCLC
HS 578T breast = system: HS 578T breast
HT29 colon = system: HT29 colon
IGROV1 ovarian = system: IGROV1 ovarian
K-562 leukemia = system: K-562 leukemia
KM12 colon = system: KM12 colon
LOX IMVI melanoma = system: LOX IMVI melanoma
M14 melanoma = system: M14 melanoma
MALME-3M melanoma = system: MALME-3M melanoma
MDA-MB-231 breast = system: MDA-MB-231 breast
MDA-MB-435 = system: MDA-MB-435
MDA-N = system: MDA-N
NCI-H226 lung = system: NCI-H226 lung
NCI-H23 lung = system: NCI-H23 lung
NCI-H460 lung = system: NCI-H460 lung
NCI-H522 lung = system: NCI-H522 lung
NCI/ADR-RES ovarian = system: NCI/ADR-RES ovarian
OVCAR-3 ovarian = system: OVCAR-3 ovarian
OVCAR-4 ovarian = system: OVCAR-4 ovarian
OVCAR-5 ovarian = system: OVCAR-5 ovarian
OVCAR-8 ovarian = system: OVCAR-8 ovarian
PC-3 prostate = system: PC-3 prostate
RXF 393 renal = system: RXF 393 renal
SF-268 CNS = system: SF-268 CNS
SF-295 CNS = system: SF-295 CNS
SF-539 CNS = system: SF-539 CNS
SK-MEL-2 melanoma = system: SK-MEL-2 melanoma
SK-MEL-28 melanoma = system: SK-MEL-28 melanoma
SK-MEL-5 melanoma = system: SK-MEL-5 melanoma
SK-OV-3 ovarian = system: SK-OV-3 ovarian
SN12C renal = system: SN12C renal
SNB-19 CNS = system: SNB-19 CNS
SNB-75 CNS = system: SNB-75 CNS
SW-620 colon = system: SW-620 colon
T-47D breast = system: T-47D breast
TK-10 renal = system: TK-10 renal
U251 CNS = system: U251 CNS
UACC-257 melanoma = system: UACC-257 melanoma
UACC-62 melanoma = system: UACC-62 melanoma
A498 renal = system: A498 renal
COLO 205 colon = system: COLO 205 colon
HOP-92 NSCLC = system: HOP-92 NSCLC
MCF7 breast = system: MCF7 breast
MOLT-4 leukemia = system: MOLT-4 leukemia
RPMI-8226 leukemia = system: RPMI-8226 leukemia
SR leukemia = system: SR leukemia
UO-31 renal = system: UO-31 renal

**Q.** With COc1ccc2c(c1)n([O-])c(C#N)c(N1CCN(c3ccc([N+](=O)[O-])cc3)CC1)[n+]2=O as the compound, how does the TGI (786-0 renal) read?
**A.** > 100 µM

**Q.** What about the TGI (A549 NSCLC) of the same compound?
**A.** > 100 µM

**Q.** And the TGI (ACHN renal)?
**A.** > 100 µM

**Q.** And the TGI (BT-549 breast)?
**A.** > 76.7 µM

**Q.** And the TGI (CAKI-1 renal)?
**A.** > 100 µM

**Q.** What about the TGI (CCRF-CEM leukemia) of the same compound?
**A.** > 100 µM

**Q.** And the TGI (DU-145 prostate)?
**A.** > 84.1 µM

**Q.** And the TGI (EKVX NSCLC)?
**A.** > 100 µM

**Q.** What about the TGI (HCC-2998 colon) of the same compound?
**A.** > 100 µM

**Q.** And the TGI (HCT-116 colon)?
**A.** > 100 µM

**Q.** And the TGI (HCT-15 colon)?
**A.** > 100 µM

**Q.** What about the TGI (HL-60(TB) leukemia) of the same compound?
**A.** 29.1 µM

**Q.** And the TGI (HOP-62 NSCLC)?
**A.** > 71.4 µM

**Q.** What about the TGI (HS 578T breast) of the same compound?
**A.** > 24.4 µM

**Q.** And the TGI (HT29 colon)?
**A.** > 100 µM

**Q.** What about the TGI (IGROV1 ovarian) of the same compound?
**A.** > 100 µM

**Q.** What about the TGI (K-562 leukemia) of the same compound?
**A.** > 100 µM

**Q.** And the TGI (KM12 colon)?
**A.** > 79.1 µM

**Q.** And the TGI (LOX IMVI melanoma)?
**A.** > 28.8 µM

**Q.** What about the TGI (M14 melanoma) of the same compound?
**A.** > 100 µM

**Q.** And the TGI (MALME-3M melanoma)?
**A.** 19.1 µM

**Q.** What about the TGI (MDA-MB-231 breast) of the same compound?
**A.** > 100 µM

**Q.** And the TGI (MDA-MB-435)?
**A.** 97.3 µM

**Q.** And the TGI (MDA-N)?
**A.** > 100 µM

**Q.** What about the TGI (NCI-H226 lung) of the same compound?
**A.** > 100 µM

**Q.** And the TGI (NCI-H23 lung)?
**A.** > 100 µM

**Q.** And the TGI (NCI-H460 lung)?
**A.** > 100 µM

**Q.** And the TGI (NCI-H522 lung)?
**A.** 9.97 µM

**Q.** And the TGI (NCI/ADR-RES ovarian)?
**A.** 11.8 µM

**Q.** And the TGI (OVCAR-3 ovarian)?
**A.** > 100 µM

**Q.** And the TGI (OVCAR-4 ovarian)?
**A.** > 100 µM

**Q.** And the TGI (OVCAR-5 ovarian)?
**A.** > 100 µM

**Q.** And the TGI (OVCAR-8 ovarian)?
**A.** > 100 µM

**Q.** What about the TGI (PC-3 prostate) of the same compound?
**A.** > 100 µM

**Q.** What about the TGI (RXF 393 renal) of the same compound?
**A.** 41.8 µM

**Q.** What about the TGI (SF-268 CNS) of the same compound?
**A.** > 34.4 µM

**Q.** And the TGI (SF-295 CNS)?
**A.** > 48.1 µM

**Q.** And the TGI (SF-539 CNS)?
**A.** 6.23 µM

**Q.** What about the TGI (SK-MEL-2 melanoma) of the same compound?
**A.** > 100 µM

**Q.** And the TGI (SK-MEL-28 melanoma)?
**A.** > 69.7 µM

**Q.** What about the TGI (SK-MEL-5 melanoma) of the same compound?
**A.** 19.7 µM

**Q.** And the TGI (SK-OV-3 ovarian)?
**A.** > 59.5 µM

**Q.** And the TGI (SN12C renal)?
**A.** > 100 µM

**Q.** And the TGI (SNB-19 CNS)?
**A.** > 100 µM

**Q.** What about the TGI (SNB-75 CNS) of the same compound?
**A.** 66.2 µM

**Q.** And the TGI (SW-620 colon)?
**A.** > 100 µM

**Q.** What about the TGI (T-47D breast) of the same compound?
**A.** 14.8 µM

**Q.** And the TGI (TK-10 renal)?
**A.** > 100 µM

**Q.** What about the TGI (U251 CNS) of the same compound?
**A.** > 100 µM

**Q.** And the TGI (UACC-257 melanoma)?
**A.** > 100 µM

**Q.** What about the TGI (UACC-62 melanoma) of the same compound?
**A.** > 100 µM

**Q.** COc1ccc(/C=C/C(=O)Oc2cc(O)cc(O)c2)cc1 was tested. Which TGI (786-0 renal) did it give?
**A.** > 100 µM

**Q.** What about the TGI (A498 renal) of the same compound?
**A.** > 100 µM

**Q.** And the TGI (A549 NSCLC)?
**A.** > 100 µM

**Q.** And the TGI (ACHN renal)?
**A.** > 100 µM

**Q.** And the TGI (BT-549 breast)?
**A.** > 100 µM

**Q.** And the TGI (CAKI-1 renal)?
**A.** 31 µM

**Q.** And the TGI (CCRF-CEM leukemia)?
**A.** 37.3 µM

**Q.** What about the TGI (COLO 205 colon) of the same compound?
**A.** > 100 µM

**Q.** And the TGI (DU-145 prostate)?
**A.** > 100 µM

**Q.** What about the TGI (EKVX NSCLC) of the same compound?
**A.** > 100 µM

**Q.** What about the TGI (HCC-2998 colon) of the same compound?
**A.** > 100 µM

**Q.** And the TGI (HCT-116 colon)?
**A.** 39.5 µM

**Q.** What about the TGI (HCT-15 colon) of the same compound?
**A.** 65.9 µM

**Q.** What about the TGI (HL-60(TB) leukemia) of the same compound?
**A.** 55.5 µM

**Q.** What about the TGI (HOP-62 NSCLC) of the same compound?
**A.** 31.5 µM

**Q.** What about the TGI (HOP-92 NSCLC) of the same compound?
**A.** > 100 µM

**Q.** What about the TGI (HT29 colon) of the same compound?
**A.** > 100 µM

**Q.** And the TGI (IGROV1 ovarian)?
**A.** 76.1 µM

**Q.** And the TGI (K-562 leukemia)?
**A.** > 100 µM

**Q.** And the TGI (KM12 colon)?
**A.** 28.4 µM

**Q.** And the TGI (LOX IMVI melanoma)?
**A.** 41.1 µM

**Q.** And the TGI (M14 melanoma)?
**A.** > 100 µM

**Q.** What about the TGI (MALME-3M melanoma) of the same compound?
**A.** > 100 µM

**Q.** What about the TGI (MCF7 breast) of the same compound?
**A.** 71.7 µM

**Q.** What about the TGI (MDA-MB-231 breast) of the same compound?
**A.** > 100 µM

**Q.** And the TGI (MDA-MB-435)?
**A.** > 100 µM

**Q.** What about the TGI (MDA-N) of the same compound?
**A.** > 100 µM

**Q.** What about the TGI (MOLT-4 leukemia) of the same compound?
**A.** 30.7 µM

**Q.** What about the TGI (NCI-H226 lung) of the same compound?
**A.** > 100 µM

**Q.** What about the TGI (NCI-H23 lung) of the same compound?
**A.** > 100 µM

**Q.** And the TGI (NCI-H460 lung)?
**A.** > 100 µM

**Q.** And the TGI (NCI-H522 lung)?
**A.** > 100 µM

**Q.** What about the TGI (NCI/ADR-RES ovarian) of the same compound?
**A.** > 100 µM

**Q.** What about the TGI (OVCAR-3 ovarian) of the same compound?
**A.** 32.1 µM

**Q.** And the TGI (OVCAR-4 ovarian)?
**A.** > 100 µM

**Q.** And the TGI (OVCAR-5 ovarian)?
**A.** > 100 µM

**Q.** What about the TGI (OVCAR-8 ovarian) of the same compound?
**A.** > 100 µM

**Q.** What about the TGI (PC-3 prostate) of the same compound?
**A.** > 100 µM

**Q.** What about the TGI (RPMI-8226 leukemia) of the same compound?
**A.** 42.4 µM

**Q.** And the TGI (RXF 393 renal)?
**A.** > 100 µM

**Q.** And the TGI (SF-268 CNS)?
**A.** 86.5 µM

**Q.** And the TGI (SF-295 CNS)?
**A.** 52.4 µM

**Q.** And the TGI (SF-539 CNS)?
**A.** > 100 µM

**Q.** And the TGI (SK-MEL-2 melanoma)?
**A.** > 100 µM

**Q.** What about the TGI (SK-MEL-28 melanoma) of the same compound?
**A.** > 100 µM

**Q.** What about the TGI (SK-MEL-5 melanoma) of the same compound?
**A.** > 100 µM

**Q.** And the TGI (SK-OV-3 ovarian)?
**A.** > 100 µM

**Q.** And the TGI (SN12C renal)?
**A.** > 100 µM

**Q.** What about the TGI (SNB-19 CNS) of the same compound?
**A.** > 100 µM

**Q.** And the TGI (SNB-75 CNS)?
**A.** > 100 µM

**Q.** What about the TGI (SR leukemia) of the same compound?
**A.** > 100 µM

**Q.** What about the TGI (SW-620 colon) of the same compound?
**A.** > 100 µM

**Q.** What about the TGI (T-47D breast) of the same compound?
**A.** > 100 µM

**Q.** What about the TGI (TK-10 renal) of the same compound?
**A.** > 100 µM

**Q.** And the TGI (U251 CNS)?
**A.** > 100 µM

**Q.** And the TGI (UACC-257 melanoma)?
**A.** > 100 µM

**Q.** And the TGI (UACC-62 melanoma)?
**A.** > 100 µM

**Q.** And the TGI (UO-31 renal)?
**A.** > 100 µM
